Measurements published in the NIST ThermoML archive (doi:10.1016/j.jct.2006.08.002).
± gives the expanded uncertainty stated by the source.

Assay: xn = mol fraction of the nth substance listed
Settings: Fluid (supercritical or subcritical phases), Constant-volume piezometry

CCO [ethanol] + O
Settings	mass density [kg/m3]
598.15 K, 15540 kPa, x1 = 0.2	308.36 ± 35
598.15 K, 15600 kPa, x1 = 0.8	243.3 ± 3.3
598.15 K, 15640 kPa, x1 = 0.2	325.01 ± 21
598.15 K, 16230 kPa, x1 = 0.8	260.09 ± 2
598.15 K, 16810 kPa, x1 = 0.2	420.24 ± 8.2
598.15 K, 17080 kPa, x1 = 0.8	283.38 ± 2.9
598.15 K, 18140 kPa, x1 = 0.8	306.39 ± 5.4
598.15 K, 18350 kPa, x1 = 0.8	311.71 ± 5.4
598.15 K, 19160 kPa, x1 = 0.5	326.69 ± 0.6
598.15 K, 21410 kPa, x1 = 0.8	366.53 ± 1.8
598.15 K, 21610 kPa, x1 = 0.5	384.81 ± 2.7
598.15 K, 21850 kPa, x1 = 0.5	418.8 ± 14
598.15 K, 22460 kPa, x1 = 0.8	381.79 ± 1.3
598.15 K, 24130 kPa, x1 = 0.5	420.47 ± 1.2
598.15 K, 24210 kPa, x1 = 0.5	423.68 ± 1.2
598.15 K, 24610 kPa, x1 = 0.8	404.76 ± 1
598.15 K, 27590 kPa, x1 = 0.2	547.13 ± 0.86
598.15 K, 28350 kPa, x1 = 0.8	438.59 ± 1
598.15 K, 28670 kPa, x1 = 0.5	462.7 ± 0.79
598.15 K, 38940 kPa, x1 = 0.5	520.65 ± 0.75
598.15 K, 48240 kPa, x1 = 0.2	617.36 ± 0.78
598.15 K, 48500 kPa, x1 = 0.5	554.28 ± 0.73
603.15 K, 10470 kPa, x1 = 0.2	67.54 ± 4.4
603.15 K, 12120 kPa, x1 = 0.5	117.18 ± 2
603.15 K, 14860 kPa, x1 = 0.5	170.89 ± 2.1
603.15 K, 16860 kPa, x1 = 0.2	350.86 ± 2.2
603.15 K, 16940 kPa, x1 = 0.5	234.07 ± 3.4
603.15 K, 18730 kPa, x1 = 0.5	293.15 ± 0.91
613.15 K, 23290 kPa, x1 = 0.2	452.8 ± 4.2
623.15 K, 6210 kPa, x1 = 0.8	53.01 ± 1.3
623.15 K, 7610 kPa, x1 = 0.5	55.79 ± 0.81
623.15 K, 9230 kPa, x1 = 0.5	69.05 ± 0.96
623.15 K, 10590 kPa, x1 = 0.5	84.15 ± 0.99
623.15 K, 11070 kPa, x1 = 0.8	114.64 ± 1.5
623.15 K, 13180 kPa, x1 = 0.5	117.07 ± 1.2
623.15 K, 13400 kPa, x1 = 0.2	89.94 ± 1.3
623.15 K, 15510 kPa, x1 = 0.8	187.93 ± 1.8
623.15 K, 16770 kPa, x1 = 0.2	137.9 ± 2.2
623.15 K, 18300 kPa, x1 = 0.8	242.99 ± 1.9
623.15 K, 19450 kPa, x1 = 0.2	221.42 ± 3.8
623.15 K, 20470 kPa, x1 = 0.8	283.01 ± 1.8
623.15 K, 20590 kPa, x1 = 0.2	286.35 ± 5.6
623.15 K, 21000 kPa, x1 = 0.2	307.94 ± 4.9
623.15 K, 21380 kPa, x1 = 0.2	324.56 ± 4.7
623.15 K, 21860 kPa, x1 = 0.8	305.99 ± 1.6
623.15 K, 21920 kPa, x1 = 0.2	350.47 ± 4.8
623.15 K, 22240 kPa, x1 = 0.8	311.3 ± 2.9
623.15 K, 24920 kPa, x1 = 0.2	420.24 ± 2.4
623.15 K, 26360 kPa, x1 = 0.8	366.04 ± 1.4
623.15 K, 27820 kPa, x1 = 0.8	381.27 ± 0.99
623.15 K, 27940 kPa, x1 = 0.5	384.27 ± 0.57
623.15 K, 30710 kPa, x1 = 0.8	404.2 ± 0.84
623.15 K, 31220 kPa, x1 = 0.5	418.2 ± 0.8
623.15 K, 31480 kPa, x1 = 0.5	419.87 ± 1.1
623.15 K, 31720 kPa, x1 = 0.5	423.08 ± 0.83
623.15 K, 36430 kPa, x1 = 0.8	444.29 ± 0.86
623.15 K, 37340 kPa, x1 = 0.5	462.02 ± 0.73
623.15 K, 41330 kPa, x1 = 0.2	546.22 ± 0.99
623.15 K, 50360 kPa, x1 = 0.5	519.83 ± 0.77
628.15 K, 19790 kPa, x1 = 0.8	259.69 ± 1.4
628.15 K, 36970 kPa, x1 = 0.8	437.84 ± 0.85
633.15 K, 11600 kPa, x1 = 0.2	67.45 ± 1.9
633.15 K, 13740 kPa, x1 = 0.5	117.01 ± 1.4
633.15 K, 17410 kPa, x1 = 0.5	170.64 ± 1.7
633.15 K, 23850 kPa, x1 = 0.5	292.69 ± 2.1
633.15 K, 26000 kPa, x1 = 0.5	326.07 ± 2.2
638.15 K, 21420 kPa, x1 = 0.5	233.65 ± 1.2
643.15 K, 35160 kPa, x1 = 0.2	451.97 ± 1.4
648.15 K, 6600 kPa, x1 = 0.8	52.95 ± 1.1
648.15 K, 8080 kPa, x1 = 0.5	55.72 ± 0.74
648.15 K, 9890 kPa, x1 = 0.5	68.96 ± 0.85
648.15 K, 11430 kPa, x1 = 0.5	84.05 ± 1
648.15 K, 12050 kPa, x1 = 0.8	114.5 ± 1.3
648.15 K, 14470 kPa, x1 = 0.5	116.92 ± 1.1
648.15 K, 14680 kPa, x1 = 0.2	89.83 ± 1.1
648.15 K, 17440 kPa, x1 = 0.8	187.69 ± 1.4
648.15 K, 19110 kPa, x1 = 0.2	137.73 ± 1.5
648.15 K, 23400 kPa, x1 = 0.2	221.13 ± 2.2
648.15 K, 25670 kPa, x1 = 0.8	305.59 ± 0.57
648.15 K, 25860 kPa, x1 = 0.2	285.96 ± 2.6
648.15 K, 26120 kPa, x1 = 0.8	310.89 ± 1.2
648.15 K, 26740 kPa, x1 = 0.2	307.52 ± 2.3
648.15 K, 28730 kPa, x1 = 0.2	349.97 ± 1.6
648.15 K, 31420 kPa, x1 = 0.8	365.54 ± 1.1
648.15 K, 33230 kPa, x1 = 0.8	380.75 ± 0.83
648.15 K, 33660 kPa, x1 = 0.2	420.24 ± 1.5
648.15 K, 34330 kPa, x1 = 0.5	383.73 ± 0.6
648.15 K, 36760 kPa, x1 = 0.8	403.64 ± 0.83
648.15 K, 39020 kPa, x1 = 0.5	419.27 ± 0.9
653.15 K, 19550 kPa, x1 = 0.2	137.7 ± 1.9
653.15 K, 21530 kPa, x1 = 0.8	242.62 ± 1.4
653.15 K, 22750 kPa, x1 = 0.8	259.36 ± 1.4
653.15 K, 24460 kPa, x1 = 0.8	282.58 ± 1.3
653.15 K, 26990 kPa, x1 = 0.8	310.81 ± 1
653.15 K, 28660 kPa, x1 = 0.2	324.03 ± 1.5
653.15 K, 34300 kPa, x1 = 0.8	380.65 ± 0.86
653.15 K, 35620 kPa, x1 = 0.5	383.63 ± 0.64
653.15 K, 40110 kPa, x1 = 0.5	417.48 ± 0.74
653.15 K, 40890 kPa, x1 = 0.5	422.34 ± 0.79
653.15 K, 44100 kPa, x1 = 0.8	437.21 ± 0.74
653.15 K, 48080 kPa, x1 = 0.5	461.19 ± 0.75
673.15 K, 6990 kPa, x1 = 0.8	52.89 ± 1
673.15 K, 8570 kPa, x1 = 0.5	55.65 ± 0.68
673.15 K, 10540 kPa, x1 = 0.5	68.88 ± 0.81
673.15 K, 12250 kPa, x1 = 0.5	83.95 ± 0.93
673.15 K, 12980 kPa, x1 = 0.2	67.32 ± 0.76
673.15 K, 13010 kPa, x1 = 0.8	114.36 ± 1.1
673.15 K, 15740 kPa, x1 = 0.5	116.78 ± 1.1
673.15 K, 15940 kPa, x1 = 0.2	89.72 ± 0.86
673.15 K, 19310 kPa, x1 = 0.8	187.46 ± 1.2
673.15 K, 20680 kPa, x1 = 0.5	170.3 ± 1.2
673.15 K, 21310 kPa, x1 = 0.2	137.56 ± 1.2
673.15 K, 23620 kPa, x1 = 0.8	242.38 ± 1.3
673.15 K, 25130 kPa, x1 = 0.8	259.1 ± 1.2
673.15 K, 25740 kPa, x1 = 0.5	233.23 ± 1.3
673.15 K, 27230 kPa, x1 = 0.8	282.28 ± 1.1
673.15 K, 27430 kPa, x1 = 0.2	220.84 ± 1.5
673.15 K, 29500 kPa, x1 = 0.8	305.19 ± 1.1
673.15 K, 30040 kPa, x1 = 0.8	310.49 ± 1.1
673.15 K, 30620 kPa, x1 = 0.5	292.07 ± 1.2
673.15 K, 31230 kPa, x1 = 0.2	285.57 ± 1.7
673.15 K, 32510 kPa, x1 = 0.2	307.09 ± 1.6
673.15 K, 33730 kPa, x1 = 0.2	323.66 ± 1.5
673.15 K, 34050 kPa, x1 = 0.5	325.37 ± 0.96
673.15 K, 35510 kPa, x1 = 0.2	349.48 ± 1.5
673.15 K, 36420 kPa, x1 = 0.8	365.05 ± 0.92
673.15 K, 38700 kPa, x1 = 0.8	380.23 ± 0.72
673.15 K, 40850 kPa, x1 = 0.5	383.2 ± 0.92
673.15 K, 42660 kPa, x1 = 0.2	420.24 ± 1
673.15 K, 42950 kPa, x1 = 0.8	403.08 ± 0.71
673.15 K, 46620 kPa, x1 = 0.5	418.66 ± 0.88
673.15 K, 47140 kPa, x1 = 0.2	451.15 ± 0.87
